Assay [1] deals with KRas-mediated Phosphorylation of ERK in AsPC-1 cells. Put plainly: Cisbio HTRF pERK assay, AsPC-1 cells. As to conditions: 3 hrs compound, read-out: Inhibition (HTRF IC50 nM) of KRas-mediated Phosphorylation of ERK, AsPC-1. It is filed as cell-based.
In assay [2] the target is T1, KRas^G12C (Homo sapiens, UniProt P01116, G12C).
T1 construct: Biotinylated KRas (corresponding to amino acids 1-169, produced at Accelegan Inc.); biotin (biotinylated); purchased Accelegan Inc
Put plainly: KRas TR-FRET tracer displacement binding assay, G12C. The settings on record: 60-minute incubation. The procedure: (§1) KRas^WT, KRas^G12A, KRas^G12C, KRas^G12D, KRas^G12R, KRas^G12S, KRas^G12V, KRas^G13D, or KRas^Q61H was used in the assay.
(§2) The ability of a compound to bind to KRas was measured using a TR-FRET displacement assay. Biotinylated KRas (corresponding to amino acids 1-169, produced at Accelegan Inc.) was incubated with custom made Cy5 labelled tracer, terbium streptavidin (Cisbio Inc.) and compound (1% DMSO final) in buffer (50 mM HEPES, pH 7.5, 5 mM MgCl2, 0.005% Tween-20 and 1 mM DTT). After a 60-minute incubation at room temperature, the reaction was measured using a BMG LABTECH CLARIO star Plus via TR-FRET.

The target of assay [3] is T2, KRas^G12D (Homo sapiens, UniProt P01116, G12D).
T2 construct: Biotinylated KRas (corresponding to amino acids 1-169, produced at Accelegan Inc.); biotin (biotinylated); purchased Accelegan Inc
Put plainly: KRas TR-FRET tracer displacement binding assay, G12D. The settings on record: 60-minute incubation. The procedure: as §1, §2
For orientation: Time-resolved FRET reads energy transfer from a long-lived donor to a nearby acceptor.

For assay [4], the system named is KRas-mediated Phosphorylation of ERK in A549 cells. Put plainly: Cisbio HTRF pERK assay, A549 cells. It is filed as cell-based. As to conditions: A549 cells, 3 hrs compound, read-out: Inhibition (HTRF IC50 nM) of KRas-mediated Phosphorylation of ERK, A549.
Assay [5] has as its system KRas-mediated Phosphorylation of ERK in H2009 cells. Description: Cisbio HTRF pERK assay, H2009 cells. It is filed as cell-based. As to conditions: read-out: Inhibition (HTRF IC50 nM) of KRas-mediated Phosphorylation of ERK, H2009.
Assay [6] has as its system KRas-mediated Phosphorylation of ERK in H727 cells. Description: Cisbio HTRF pERK assay, H727 cells. It is filed as cell-based. The settings on record: 3 hrs compound, read-out: Inhibition (HTRF IC50 nM) of KRas-mediated Phosphorylation of ERK, H727.
The subject of assay [7] is KRas-mediated Phosphorylation of ERK in H460 cells. Put plainly: Cisbio HTRF pERK assay, H460 cells. Type of assay: cell-based. As to conditions: H460 cells, 3 hrs compound, read-out: Inhibition (HTRF IC50 nM) of KRas-mediated Phosphorylation of ERK, H460.
For assay [8], the target named is T3, KRas^G12S (Homo sapiens, UniProt P01116, G12S).
T3 construct: Biotinylated KRas (corresponding to amino acids 1-169, produced at Accelegan Inc.); biotin (biotinylated); purchased Accelegan Inc
Description: KRas TR-FRET tracer displacement binding assay, G12S. The settings on record: 60-minute incubation. The procedure:
as §1, §2

In assay [9] the test system is KRas-mediated Phosphorylation of ERK in H358 cells. Put plainly: Cisbio HTRF pERK assay, H358 cells. Type of assay: cell-based. The settings on record: H358 cells, 3 hrs compound, read-out: Inhibition (HTRF IC50 nM) of KRas-mediated Phosphorylation of ERK, H358.
The test system of assay [10] is KRas-mediated Phosphorylation of ERK in HCT116 cells. Description: Cisbio HTRF pERK assay, HCT116 cells. Type of assay: cell-based. As to conditions: HCT116 cells, 3 hrs compound, read-out: Inhibition (HTRF IC50 nM) of KRas-mediated Phosphorylation of ERK, HCT116.
Assay [11] addresses T4, KRas^WT (Homo sapiens, UniProt P01116).
T4 construct: Biotinylated KRas (corresponding to amino acids 1-169, produced at Accelegan Inc.); biotin (biotinylated); purchased Accelegan Inc
Description: KRas TR-FRET tracer displacement binding assay, WT. As to conditions: 60-minute incubation. As to the method: as §1, §2

The target in assay [12] is T5, KRas^G12V (Homo sapiens, UniProt P01116, G12V).
T5 construct: Biotinylated KRas (corresponding to amino acids 1-169, produced at Accelegan Inc.); biotin (biotinylated); purchased Accelegan Inc
Description: KRas TR-FRET tracer displacement binding assay, G12V. The settings on record: 60-minute incubation. The procedure: as §1, §2

Assay [13] relates to KRas-mediated Phosphorylation of ERK in PSN1 cells. Description: Cisbio HTRF pERK assay, PSN1 cells. Type of assay: cell-based. The settings on record: 3 hour compound, read-out: Inhibition (HTRF IC50 nM) of KRas-mediated Phosphorylation of ERK, PSN1. As to the method:
(§3) Inhibition of KRas Phosphorylation of ERK (HTRF) by Exemplary Compounds of Formula (I) • Cisbio HTRF Advanced pERK Assay Catalog #64AERPEH • Cell: MKN1, PSN1 • Procedure: • Day 1: Seed 6,000 cells/well −25 μl/well in 384-well white solid bottom plate; RPM1_10% FBS.

In assay [14] the test system is KRas-mediated Phosphorylation of ERK in MKN1 cells. Put plainly: Cisbio HTRF pERK assay, MKN1 cells. The settings on record: Homo sapiens, MKN-1, 3 hour compound, read-out: Inhibition (HTRF IC50 nM) of KRas-mediated Phosphorylation of ERK, MKN1. Type of assay: cell-based. As to the method:
as §3

The mark [15] stands for this setting: Homo sapiens, NCI-H2009, H2009 cells.

Molecules are shown by their SMILES. Read-outs that look alike come from different tables or passages of the source.

T2 sequence (P01116 1-169 isoform P01116-2 G12D): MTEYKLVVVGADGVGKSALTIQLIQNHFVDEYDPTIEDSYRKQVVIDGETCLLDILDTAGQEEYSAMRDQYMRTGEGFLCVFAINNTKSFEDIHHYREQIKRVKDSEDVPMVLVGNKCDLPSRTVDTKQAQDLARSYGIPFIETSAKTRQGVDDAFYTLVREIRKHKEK
T3 sequence (P01116 1-169 isoform P01116-2 G12S): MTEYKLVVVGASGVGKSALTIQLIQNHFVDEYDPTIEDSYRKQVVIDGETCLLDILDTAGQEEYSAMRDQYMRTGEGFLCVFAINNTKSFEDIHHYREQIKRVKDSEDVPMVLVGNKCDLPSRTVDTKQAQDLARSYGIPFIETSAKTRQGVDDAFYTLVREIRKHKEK
T4 sequence (P01116 1-169 isoform P01116-2): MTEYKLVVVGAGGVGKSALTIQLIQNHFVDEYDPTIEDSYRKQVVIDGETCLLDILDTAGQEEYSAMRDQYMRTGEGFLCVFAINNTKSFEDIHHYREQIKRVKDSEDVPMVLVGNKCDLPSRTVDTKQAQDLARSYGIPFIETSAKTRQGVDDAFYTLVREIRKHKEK
T1 sequence (P01116 1-169 isoform P01116-2 G12C): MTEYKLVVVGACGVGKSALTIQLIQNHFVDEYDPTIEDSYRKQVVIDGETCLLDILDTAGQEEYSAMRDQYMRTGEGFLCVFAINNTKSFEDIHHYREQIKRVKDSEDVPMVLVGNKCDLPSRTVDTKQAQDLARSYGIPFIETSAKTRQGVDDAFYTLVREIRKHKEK
T5 sequence (P01116 1-169 isoform P01116-2 G12V): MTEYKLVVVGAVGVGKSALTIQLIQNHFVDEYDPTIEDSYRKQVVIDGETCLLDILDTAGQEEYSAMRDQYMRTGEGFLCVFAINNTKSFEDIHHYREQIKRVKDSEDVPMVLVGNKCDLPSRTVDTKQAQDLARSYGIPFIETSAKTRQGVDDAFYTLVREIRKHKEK

Take `Cc1c(F)c(N)nc(-c2c(Cl)cc3c(NC(C)c4cccnc4N)nc(OC[C@@]45CCCN4C[C@H](F)C5)nc3c2F)c1C(F)(F)F` (single isomer, unassigned; isomer 2) [Example 173]: the concentration for half-maximal inhibition (IC50) – broadly, the concentration that inhibits the measured activity by half – in [1] is 1890 nM; in assay [2], 454 nM; in assay [3] it was 661 nM; in [4] it was 244 nM; in assay [5] (H2009 cells) it was 40 nM; in [6], 252 nM. Besides, the IC50 turned out to be 511 nM in [7]; 331 nM in assay [8]; 95 nM in assay [9]; 2900 nM in [10]; 751 nM in assay [11]; 430 nM in [12]. Besides, the IC50 in [13] is above 10000 nM.
For the compound `N#Cc1c(N)sc2c(F)ccc(-c3c(Cl)cc4c(NCC5CS(=O)(=O)C5)nc(OC[C@@]56CCCN5C[C@H](F)C6)nc4c3F)c12` [Example 222, 2-amino-4-(6-chloro-4-(((1,1-dioxidothietan-3-yl)methyl)amino)-8-fluoro-2-(((2R,7aS)-2-fluorotetrahydro-1H-pyrrolizin-7a(5H)-yl)methoxy)quinazolin-7-yl)-7-fluorobenzo[b]thiophene-3-carbonitrile], the IC50 in [1] (Homo sapiens, ASPC1, 3 h) was 2560 nM; in assay [4] (Homo sapiens, A549, 3 h) it was 1640 nM; in [5] (setting [15]) it was 273 nM; in [6] (Homo sapiens, NCI-H727, 3 h), 1440 nM; in [7] (Homo sapiens, NCI-H460, 3 h) it was 911 nM; in [14], 84 nM. In addition, the half-inhibitory concentration (IC50) is 207 nM in assay [9] (Homo sapiens, NCI-H358, 3 h); 1110 nM in assay [10] (Homo sapiens, HCT-116, 3 h); above 10000 nM in [13] (Homo sapiens, PSN1, 3 h).
For `N#Cc1c(N)sc2c(F)ccc(-c3c(Cl)cc4c(N5CCC5CO)nc(OC[C@@]56CCCN5C[C@H](F)C6)nc4c3F)c12` (stereo partly drawn) [Example 209, 2-amino-4-(6-chloro-8-fluoro-2-(((2R,7aS)-2-fluorotetrahydro-1H-pyrrolizin-7a(5H)-yl)methoxy)-4-(2-(hydroxymethyl)azetidin-1-yl)quinazolin-7-yl)-7-fluorobenzo[b]thiophene-3-carbonitrile], the IC50 in assay [1] (Homo sapiens, ASPC1, 3 h) was determined as 93 nM; in [2], 4 nM; in assay [3], 7 nM; in assay [4] (Homo sapiens, A549, 3 h) it was 68 nM; in [5] (setting [15]), 15 nM; in assay [6] (Homo sapiens, NCI-H727, 3 h), 27 nM. Also, the IC50 in assay [7] (Homo sapiens, NCI-H460, 3 h) was 47 nM; in assay [8] it was 2 nM; in [9] (Homo sapiens, NCI-H358, 3 h), 9 nM; in [10] (Homo sapiens, HCT-116, 3 h), 83 nM; in assay [11], 2 nM; in assay [12], below 2 nM. Besides, in assay [13] (Homo sapiens, PSN1, 3 h), the IC50 worked out at 1690 nM.
For `N#Cc1c(N)sc2c(F)ccc(-c3c(F)cc4c(NCc5cn[nH]c5)nc(OC[C@@]56CCCN5C[C@H](F)C6)nc4c3F)c12` [Example 214, 4-(4-(((1H-pyrazol-4-yl)methyl)amino)-6,8-difluoro-2-(((2R,7aS)-2-fluorotetrahydro-1H-pyrrolizin-7a(5H)-yl)methoxy)quinazolin-7-yl)-2-amino-7-fluorobenzo[b]thiophene-3-carbonitrile], the IC50 in [1] (Homo sapiens, ASPC1, 3 h) was above 10000 nM; in assay [4] (Homo sapiens, A549, 3 h), above 10000 nM; in assay [5] (setting [15]) it was 4690 nM; in assay [6] (Homo sapiens, NCI-H727, 3 h), above 10000 nM; in assay [7] (Homo sapiens, NCI-H460, 3 h), 5060 nM; in assay [14], 739 nM. The IC50 in [9] (Homo sapiens, NCI-H358, 3 h) is 982 nM; in assay [10] (Homo sapiens, HCT-116, 3 h), above 10000 nM; in assay [13] (Homo sapiens, PSN1, 3 h), above 10000 nM.
As to `CN(c1nc(OC[C@@]23CCCN2C[C@H](F)C3)nc2c(F)c(-c3ccc(F)c4sc(N)c(C#N)c34)c(Cl)cc12)[C@H]1C[C@@H]1F` [Example 202, 2-amino-4-(6-chloro-8-fluoro-4-(((1S,2S)-2-fluorocyclopropyl)(methyl)amino)-2-(((2R,7aS)-2-fluorotetrahydro-1H-pyrrolizin-7a(5H)-yl)methoxy)quinazolin-7-yl)-7-fluorobenzo[b]thiophene-3-carbonitrile], the IC50 in assay [1] (Homo sapiens, ASPC1, 3 h) is 200 nM; in assay [4] (Homo sapiens, A549, 3 h), 200 nM; in assay [5] (setting [15]), 24 nM; in [6] (Homo sapiens, NCI-H727, 3 h), 104 nM; in assay [7] (Homo sapiens, NCI-H460, 3 h), 145 nM; in assay [9] (Homo sapiens, NCI-H358, 3 h), 63 nM. In addition, the 50% inhibitory concentration (IC50) in [10] (Homo sapiens, HCT-116, 3 h) is 498 nM; in assay [13] (Homo sapiens, PSN1, 3 h) it was 3350 nM.
For the compound `N#Cc1c(N)sc2c(F)ccc(-c3c(Cl)cc4c(N5CC6CCC(C5)N6)nc(OC[C@@]56CCCN5C/C(=C\F)C6)nc4c3F)c12` [Example 180, (R)-4-(4-((1R,5S)-3,8-diazabicyclo[3.2.1]octan-3-yl)-6-chloro-8-fluoro-2-(((S,Z)-2-(fluoromethylene)tetrahydro-1H-pyrrolizin-7a(5H)-yl)methoxy)quinazolin-7-yl)-2-amino-7-fluorobenzo[b]thiophene-3-carbonitrile], the half-inhibitory concentration (IC50) in assay [1] stood at 1 nM; in assay [4], 139 nM; in assay [5] (setting [15]), 40 nM; in assay [6], 512 nM; in [7] it was 81 nM; in [14] it was 10 nM. In addition, the IC50 in [9] was determined as 54 nM; in assay [10], 72 nM; in assay [13] (Homo sapiens, PSN1, 3 h), 1370 nM.
For `Cc1c(F)c(N)nc(-c2c(Cl)cc3c(NC(C)c4cccnc4N)nc(OC[C@@]45CCCN4C[C@H](F)C5)nc3c2F)c1C(F)(F)F` (single isomer, unassigned; isomer 1) [Example 172], the IC50 in assay [1] was 794 nM; in [2] it was below 2 nM; in [3], 34 nM; in assay [4] it was 111 nM; in [5] (H2009 cells) it was 8 nM; in [6], 111 nM. In addition, the IC50 was 182 nM in [7]; 3 nM in assay [8]; 15 nM in assay [9]; 841 nM in assay [10]; 11 nM in [11]; 3 nM in [12]. In addition, in assay [13], the IC50 is 4290 nM.
For the compound `N#Cc1c(N)sc2c(F)ccc(-c3c(Cl)cc4c(N5CCCCCC5)nc(OC[C@@]56CCCN5C[C@H](F)C6)nc4c3F)c12` [Example 210, 2-amino-4-(4-(azepan-1-yl)-6-chloro-8-fluoro-2-(((2R,7aS)-2-fluorotetrahydro-1H-pyrrolizin-7a(5H)-yl)methoxy)quinazolin-7-yl)-7-fluorobenzo[b]thiophene-3-carbonitrile], the IC50 came to 21 nM in [1] (Homo sapiens, ASPC1, 3 h); 38 nM in [4] (Homo sapiens, A549, 3 h); 5 nM in assay [5] (setting [15]); 22 nM in [6] (Homo sapiens, NCI-H727, 3 h); 25 nM in assay [7] (Homo sapiens, NCI-H460, 3 h); 10 nM in assay [9] (Homo sapiens, NCI-H358, 3 h). Moreover, the IC50 in assay [10] (Homo sapiens, HCT-116, 3 h) stood at 54 nM; in assay [13] (Homo sapiens, PSN1, 3 h), 1190 nM.

(Values after US20240025907A1, “QUINAZOLINE PAN-KRas INHIBITORS” (Mirati Therapeutics, Inc., priority 2022, published 2024).)
